# Test results taken from patent US20230365537A1, “POLO LIKE KINASE 4 INHIBITORS” (ORIC Pharmaceuticals, Inc., priority 2021, published 2023).
# Experiments:
# [1] = target: human recombinant Aurora A (Homo sapiens (Human), UniProt O14965); assay: Aurora A Kinase Biochemical Assay (ADP-Glo); settings: ratio of Aurora A IC50 to PLK4 IC50 (selectivity)
# human recombinant PLK4 = human recombinant PLK4 (Homo sapiens (Human), UniProt O00444); assay: PLK4 Biochemical Assay (ADP-Glo); settings: 0.5 nM PLK4, 8.0 µM ATP, 4.7 µM MBP, 6 hours at RT
# How it was run: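 Luminescent ADP-Glo detection quantified ADP production, with ATP depletion for 40 min and detection for 30 min at room temperature. Compound and PLK4 (1.0 nM stock addition) were preincubated 15 min in HEPES pH 7.5 buffer containing MgCl2, EGTA, DTT, Brij-35 and BSA. IC50 values were obtained by four-parameter nonlinear regression.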
# [2] = target: human recombinant Aurora B (Homo sapiens (Human), UniProt Q96GD4); assay: Aurora B Kinase Biochemical Assay (ADP-Glo); settings: ratio of Aurora B IC50 to PLK4 IC50 (selectivity)
# How it was run: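 IC50 derived by four-parameter nonlinear fit of ADP-Glo luminescence (ADP produced). Compound was preincubated 15 min at RT with 20 nM recombinant human Aurora B, in 50 mM HEPES pH 7.5, 10 mM MgCl2, 1 mM EGTA, 1 mM DTT, 0.01% Brij-35/BSA.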
# Sequence of human recombinant Aurora A (O14965 whole entry): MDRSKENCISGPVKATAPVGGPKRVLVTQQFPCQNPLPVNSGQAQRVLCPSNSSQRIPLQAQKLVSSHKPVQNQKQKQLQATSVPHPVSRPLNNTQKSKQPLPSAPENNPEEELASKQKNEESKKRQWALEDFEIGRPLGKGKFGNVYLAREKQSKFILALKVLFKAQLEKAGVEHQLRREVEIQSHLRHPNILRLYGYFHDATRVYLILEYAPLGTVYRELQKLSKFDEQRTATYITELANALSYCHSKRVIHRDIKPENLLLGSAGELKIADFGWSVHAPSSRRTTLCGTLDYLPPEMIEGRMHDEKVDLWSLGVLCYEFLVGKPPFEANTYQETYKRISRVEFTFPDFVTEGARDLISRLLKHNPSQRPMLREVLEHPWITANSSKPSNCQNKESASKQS
# Sequence of human recombinant PLK4 (O00444 whole entry): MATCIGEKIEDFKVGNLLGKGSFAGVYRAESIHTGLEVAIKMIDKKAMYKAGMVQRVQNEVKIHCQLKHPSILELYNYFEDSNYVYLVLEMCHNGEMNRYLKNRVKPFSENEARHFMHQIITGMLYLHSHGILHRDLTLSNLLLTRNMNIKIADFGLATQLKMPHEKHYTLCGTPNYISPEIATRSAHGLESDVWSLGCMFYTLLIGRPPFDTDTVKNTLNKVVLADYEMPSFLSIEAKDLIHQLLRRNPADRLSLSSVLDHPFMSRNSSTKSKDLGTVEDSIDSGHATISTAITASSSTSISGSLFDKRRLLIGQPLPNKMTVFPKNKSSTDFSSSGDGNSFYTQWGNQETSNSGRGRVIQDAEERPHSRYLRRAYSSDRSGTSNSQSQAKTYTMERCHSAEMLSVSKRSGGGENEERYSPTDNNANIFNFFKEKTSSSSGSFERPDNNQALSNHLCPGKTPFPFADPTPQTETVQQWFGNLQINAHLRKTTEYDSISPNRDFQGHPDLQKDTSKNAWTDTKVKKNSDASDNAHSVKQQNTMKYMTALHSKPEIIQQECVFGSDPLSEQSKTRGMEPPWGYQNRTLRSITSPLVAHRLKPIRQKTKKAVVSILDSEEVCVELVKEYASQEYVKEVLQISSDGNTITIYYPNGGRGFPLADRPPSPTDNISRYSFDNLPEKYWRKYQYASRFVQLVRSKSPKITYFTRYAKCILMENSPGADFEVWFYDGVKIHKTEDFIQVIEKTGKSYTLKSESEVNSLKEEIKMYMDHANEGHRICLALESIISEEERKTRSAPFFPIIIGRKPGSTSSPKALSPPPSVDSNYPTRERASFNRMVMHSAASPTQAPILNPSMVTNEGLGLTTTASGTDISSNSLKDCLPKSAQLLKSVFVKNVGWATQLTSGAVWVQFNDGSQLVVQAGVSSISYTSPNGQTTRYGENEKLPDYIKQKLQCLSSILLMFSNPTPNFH
# Sequence of human recombinant Aurora B (Q96GD4 whole entry): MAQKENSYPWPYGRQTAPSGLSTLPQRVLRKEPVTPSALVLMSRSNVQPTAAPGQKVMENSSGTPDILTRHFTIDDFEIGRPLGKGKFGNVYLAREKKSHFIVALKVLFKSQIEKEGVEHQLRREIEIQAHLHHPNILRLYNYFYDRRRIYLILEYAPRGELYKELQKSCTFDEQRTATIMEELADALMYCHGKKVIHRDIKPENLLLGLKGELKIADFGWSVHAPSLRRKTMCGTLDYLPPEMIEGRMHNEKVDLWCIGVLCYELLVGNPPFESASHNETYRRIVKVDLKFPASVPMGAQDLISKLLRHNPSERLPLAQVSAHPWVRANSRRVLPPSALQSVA
SMILES,[Aurora A IC50 (nM)]/[PLK4 IC50 (nM)] [1],IC50 (human recombinant PLK4) [nM],[Aurora B IC50 (nM)]/[PLK4 IC50 (nM)] [2]
"COc1ccc2c(c1)[C@]1(C[C@H]1c1ccc3c(Nc4nc(N(C)C)ncc4C)n[nH]c3c1)C(=O)N2 [Example 182, (1R,2S)-2-(3-{[2-(dimethylamino)-5-methylpyrimidin-4-yl]amino}-1H-indazol-6-yl)-5′-methoxyspiro[cyclopropane-1,3′-indol]-2′(1′H)-one]",53.6821,4.45,198.8774
"COc1ccc2c(c1)[C@]1(C[C@H]1c1ccc3c(Nc4cc(F)c(C(=O)N(C)C)cc4OC)n[nH]c3c1)C(=O)N2 [Example 206, 2-fluoro-5-methoxy-4-({6-[(1R,2S)-5′-methoxy-2′-oxo-1’,2′-dihydrospiro[cyclopropane-1,3′-indol]-2-yl]-1H-indazol-3-yl}amino)-N,N-dimethylbenzamide]",618.8586,0.806,80.2233
"COc1ccc2c(c1)[C@]1(C[C@H]1c1ccc3c(Nc4cc(F)c(C(=O)N5CCOCC5)cc4OC)n[nH]c3c1)C(=O)N2 [Example 207, (1R,2S)-2-{3-[5-fluoro-2-methoxy-4-(morpholine-4-carbonyl)anilino]-1H-indazol-6-yl}-5′-methoxyspiro[cyclopropane-1,3′-indol]-2′(1′H)-one]",497.3739,0.952,111.6597
"COc1ccc2c(c1)[C@]1(C[C@H]1c1ccc3c(Nc4cc(N5CCCC5=O)cnc4OC)n[nH]c3c1)C(=O)N2 [Example 220, (1R,2S)-5′-methoxy-2-(3-{[2-methoxy-5-(2-oxopyrrolidin-1-yl)pyridin-3-yl]amino}-1H-indazol-6-yl)spiro[cyclopropane-1,3′-indol]-2′(1′H)-one]",1042.4081,6.01,498.7527
"COc1ccc2c(c1)[C@]1(C[C@H]1c1ccc3c(Nc4ncc(P(C)(C)=O)nc4OC)n[nH]c3c1)C(=O)N2 [Example 229, (1R,2S)-2-(3-{[5-(dimethylphosphoryl)-3-methoxypyrazin-2-yl]amino}-1H-indazol-6-yl)-5′-methoxyspiro[cyclopropane-1,3′-indol]-2′(1′H)-one]",1669.4278,7.85,130.8780
"COc1ccc2c(c1)[C@]1(C[C@H]1c1ccc3c(Nc4ncc(C(=O)N5CC(OC)C5)cc4OC)n[nH]c3c1)C(=O)N2 [Example 235, (1R,2S)-5′-methoxy-2-(3-{[3-methoxy-5-(3-methoxyazetidine-1-carbonyl)pyridm-2-yl]amino}-1H-indazol-6-yl)spiro[cyclopropane-1,3′-indol]-2′(1′H)-one]",2053.4808,2.17,260.3503
"COc1ccc2c(c1)[C@]1(C[C@H]1c1ccc3c(Nc4ncc(C(=O)N(C)C)nc4OC)n[nH]c3c1)C(=O)N2 [Example 236, 6-methoxy-5-({6-[(1R,2S)-5′-methoxy-2′-oxo-1′,2′-dihydrospiro[cyclopropane-1,3′-indol]-2-yl]-1H-indazol-3-yl}amino)-N,N-dimethylpyrazine-2-carboxamide]",949.6021,2.26,114.8983
"CCOc1nc(C(=O)N(C)C)cnc1Nc1n[nH]c2cc([C@@H]3C[C@@]34C(=O)Nc3ccc(OC)cc34)ccc12 [Example 237, 6-ethoxy-5-({6-[(1R,2S)-5′-methoxy-2′-oxo-1′,2′-dihydrospiro[cyclopropane-1,3′-indol]-2-yl]-1H-indazol-3-yl}amino)-N,N-dimethylpyrazine-2-carboxamide]",3385.3211,2.94,369
"COc1ccc2c(c1)[C@]1(C[C@H]1c1ccc3c(Nc4cnc(P(C)(C)=O)cc4OC)n[nH]c3c1)C(=O)N2 [Example 249, (1R,2S)-2-(3-{[6-(dimethylphosphoryl)-4-methoxypyridin-3-yl]amino}-1H-indazol-6-yl)-5′-methoxyspiro[cyclopropane-1,3′-indol]-2′(1′H)-one]",2585.7077,6.56,451.7751
"COc1ccc2c(c1)[C@]1(C[C@H]1c1ccc3c(Nc4ccc(C(=O)NC(CF)CF)nc4OC)n[nH]c3c1)C(=O)N2 [Example 250, N-(1,3-difluoropropan-2-yl)-6-methoxy-5-({6-[(1R,2S)-5′-methoxy-2′-oxo-1′,2′-dihydrospiro[cyclopropane-1,3′-indol]-2-yl]-1H-indazol-3-yl}amino)pyridine-2-carboxamide]",819.6509,6.19,110.6011
"COc1ccc2c(c1)[C@]1(C[C@H]1c1ccc3c(Nc4cc5oc(C)nc5cc4Cl)n[nH]c3c1)C(=O)N2 [Example 252, (1R,2S)-2-{3-[(5-chloro-2-methyl-1,3-benzoxazol-6-yl)amino]-1H-indazol-6-yl}-5′-methoxyspiro[cyclopropane-1,3′-indol]-2′(1′H)-one]",518.4227,9.28,365.8694
"COc1ccc2c(c1)[C@]1(C[C@H]1c1ccc3c(Nc4cnc(C(=O)N(C)C)cc4OC)n[nH]c3c1)C(=O)N2 [Example 253, 4-methoxy-5-({6-[(1R,2S)-5′-methoxy-2′-oxo-1′,2′-dihydrospiro[cyclopropane-1,3′-indol]-2-yl]-1H-indazol-3-yl}amino)-N,N-dimethylpyridine-2-carboxamide]",709.6288,5.98,88.7161
"COc1ccc2c(c1)[C@]1(C[C@H]1c1ccc3c(Nc4ccc(C#N)nc4OC)n[nH]c3c1)C(=O)N2 [Example 260, 6-methoxy-5-({6-[(1R,2S)-5′-methoxy-2′-oxo-1′,2′-dihydrospiro[cyclopropane-1,3′-indol]-2-yl]-1H-indazol-3-yl}amino)pyridine-2-carbonitrile]",1330.5457,9.33,294.8429
"CCP(=O)(CC)c1ccc(OC)c(Nc2n[nH]c3cc([C@@H]4C[C@@]45C(=O)Nc4ccc(OC)cc45)ccc23)c1 [Example 261, (1R,2S)-2-{3-[5-(diethylphosphoryl)-2-methoxyanilino]-1H-indazol-6-yl}-5′-methoxyspiro[cyclopropane-1,3′-indol]-2′(1′H)-one]",5824.2730,7.91,2807.8381
